Measurements reported in patent US8883829B2, “2-phenyl-1,2,3-benzotriazoles for UV radiation absorbance” (DSM IP Assets B.V., priority 2010, dated 2014).
Read-outs that look alike come from different tables or passages of the source.

Key:
[1] = Determination of the solubility in cosmetic solvents; conditions: saturated solution stirred 7 days at room temperature, HPLC; for solubility Finsolv TN: C12-15 Alkylbenzoate; for solubility Myritol 318: Capric/Caprylic Triglyceride
Method: (§1) 1.5 g of a cosmetic solvent (Capric/Caprylic Triglyceride (Mygliol 318) and C12-15 Alkylbenzoate (Finsolv TN)) is saturated with the respective Benzotriazol-derivative by adding 0.2 g portions while stirring at room temperature. The saturated solution is stirred for 7 days at room temperature. 1 ml of the supernatant is centrifuged and filtered in order to obtain a clear solution. The concentration of the Benzotriazol-derivative is determined by means of HPLC.

[2] = 7 days
Method: as §1

SMILES	solubility Finsolv TN [1] [%]	solubility Myritol 318 [1] [%]	solubility Finsolv TN [2] [%]	solubility Myritol 318 [2] [%]
Cc1cc(COCCC(C)C)c(O)c(-n2nc3ccccc3n2)c1 [Example 6, 2-(2H-Benzotriazol-2-yl)-6-(3-methyl-butoxymethyl)-4-methyl-phenol]	37	36	–	–
Cc1cc(CO)c(O)c(-n2nc3ccccc3n2)c1 [Example 14, 2-(2H-Benzotriazol-2-yl)-6-hydroxymethyl-4-methyl-phenol]	0.02	0.01	–	–
CCCCC(CC)C(=O)OCc1cc(C)cc(-n2nc3ccccc3n2)c1O (stereo not drawn) [Example 8, 2-Ethyl-hexanoic acid 3-(2H-benzotriazol-2-yl)-2-hydroxy-5-methyl-benzyl ester]	42	24	–	–
Cc1cc(COC(=O)CC(C)C)c(O)c(-n2nc3ccccc3n2)c1 [Example 9, 3-Methyl-butyric acid 3-(2H-benzotriazol-2-yl)-2-hydroxy-5-methyl-benzyl ester]	8	6	–	–
CCCCC(CC)COCc1cc(C)cc(-n2nc3ccccc3n2)c1O (stereo not drawn) [Example 2, 2-(2H-Benzotriazol-2-yl)-6-(2-ethylhexyloxymethyl)-4-methyl-phenol]	–	–	64	66
CCCCC(CC)COCc1cc(C)cc(-n2nc3ccc(Cl)cc3n2)c1O (stereo not drawn) [Example 12, 2-(5-Chloro-benzotriazol-2-yl)-6-(2-ethylhexyloxymethyl)-4-methyl-phenol]	19	12	–	–
